Data published in publication PMC3670925, “Extracellular Modulation of the Silkmoth Sex Pheromone Receptor Activity by Cyclic Nucleotides” (PLoS ONE, 2013).

Experiments:
Assay type in all cases: cell-based
BmOr-1 = molecular target: T1, BmOr-1 (Bombyx mori, UniProt Q5WA61); assay: two-electrode voltage clamp in Xenopus oocytes, dose-response
T1 construct: with BmOrco
T1 sequence (Q5WA61 1-430): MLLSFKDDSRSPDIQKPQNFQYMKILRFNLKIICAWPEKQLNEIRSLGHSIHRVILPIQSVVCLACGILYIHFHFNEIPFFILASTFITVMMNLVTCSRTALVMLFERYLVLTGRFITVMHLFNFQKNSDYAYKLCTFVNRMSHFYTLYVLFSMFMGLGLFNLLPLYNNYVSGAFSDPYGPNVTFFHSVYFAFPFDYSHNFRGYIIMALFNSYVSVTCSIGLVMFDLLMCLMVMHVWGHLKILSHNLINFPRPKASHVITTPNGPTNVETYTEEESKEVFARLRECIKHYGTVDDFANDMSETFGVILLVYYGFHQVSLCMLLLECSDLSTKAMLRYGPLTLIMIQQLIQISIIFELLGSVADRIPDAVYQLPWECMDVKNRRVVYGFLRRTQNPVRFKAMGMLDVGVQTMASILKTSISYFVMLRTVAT
T1 sequence (Q7YT34 1-472 partner): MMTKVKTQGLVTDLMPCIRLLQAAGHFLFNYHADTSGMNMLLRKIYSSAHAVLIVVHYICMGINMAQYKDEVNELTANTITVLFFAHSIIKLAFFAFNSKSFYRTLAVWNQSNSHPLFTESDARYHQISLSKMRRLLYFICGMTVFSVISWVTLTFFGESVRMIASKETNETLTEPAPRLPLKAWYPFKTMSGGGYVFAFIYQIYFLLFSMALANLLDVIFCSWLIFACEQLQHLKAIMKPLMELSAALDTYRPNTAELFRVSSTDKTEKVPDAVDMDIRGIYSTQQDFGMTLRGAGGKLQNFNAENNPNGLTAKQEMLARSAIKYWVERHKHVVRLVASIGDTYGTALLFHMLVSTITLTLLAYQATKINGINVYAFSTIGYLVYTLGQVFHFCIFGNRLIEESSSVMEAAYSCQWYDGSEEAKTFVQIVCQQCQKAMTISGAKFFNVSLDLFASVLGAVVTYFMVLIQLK

Or47a = molecular target: T2, Or47a (Drosophila melanogaster, UniProt P81921); assay: two-electrode voltage clamp in Xenopus oocytes, […]
T2 construct: with Orco
T2 sequence (P81921 1-385): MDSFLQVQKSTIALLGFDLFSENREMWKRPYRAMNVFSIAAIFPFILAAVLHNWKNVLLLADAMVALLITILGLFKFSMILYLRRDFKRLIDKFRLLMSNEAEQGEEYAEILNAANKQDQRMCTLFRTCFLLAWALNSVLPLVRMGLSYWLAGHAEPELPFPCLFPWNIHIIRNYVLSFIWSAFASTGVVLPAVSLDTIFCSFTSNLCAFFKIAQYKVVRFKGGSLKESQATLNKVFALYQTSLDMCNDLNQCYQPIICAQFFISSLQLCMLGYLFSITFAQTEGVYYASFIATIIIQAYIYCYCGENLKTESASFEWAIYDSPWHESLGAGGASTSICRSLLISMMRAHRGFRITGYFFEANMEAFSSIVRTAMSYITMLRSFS
T2 sequence (Q9VNB5 1-486 partner): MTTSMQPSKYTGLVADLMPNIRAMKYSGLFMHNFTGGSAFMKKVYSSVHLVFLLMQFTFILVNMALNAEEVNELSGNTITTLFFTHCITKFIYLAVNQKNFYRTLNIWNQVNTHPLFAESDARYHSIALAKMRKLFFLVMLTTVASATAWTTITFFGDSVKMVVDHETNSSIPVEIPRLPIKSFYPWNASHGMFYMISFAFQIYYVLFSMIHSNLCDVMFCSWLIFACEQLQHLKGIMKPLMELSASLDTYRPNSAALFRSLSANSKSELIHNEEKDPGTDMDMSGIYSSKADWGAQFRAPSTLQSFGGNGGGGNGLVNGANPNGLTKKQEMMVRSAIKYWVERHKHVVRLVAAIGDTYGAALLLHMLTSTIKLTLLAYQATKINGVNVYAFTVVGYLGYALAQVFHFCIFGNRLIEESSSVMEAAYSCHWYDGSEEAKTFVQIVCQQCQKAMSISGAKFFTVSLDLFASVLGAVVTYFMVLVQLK

AgOr2 = molecular target: T3, AgOr2 (Anopheles gambiae, UniProt Q8WTE6); assay: two-electrode voltage clamp in Xenopus oocytes, […]
T3 construct: gene OR2; with AgOrco
T3 sequence (Q8WTE6 whole entry): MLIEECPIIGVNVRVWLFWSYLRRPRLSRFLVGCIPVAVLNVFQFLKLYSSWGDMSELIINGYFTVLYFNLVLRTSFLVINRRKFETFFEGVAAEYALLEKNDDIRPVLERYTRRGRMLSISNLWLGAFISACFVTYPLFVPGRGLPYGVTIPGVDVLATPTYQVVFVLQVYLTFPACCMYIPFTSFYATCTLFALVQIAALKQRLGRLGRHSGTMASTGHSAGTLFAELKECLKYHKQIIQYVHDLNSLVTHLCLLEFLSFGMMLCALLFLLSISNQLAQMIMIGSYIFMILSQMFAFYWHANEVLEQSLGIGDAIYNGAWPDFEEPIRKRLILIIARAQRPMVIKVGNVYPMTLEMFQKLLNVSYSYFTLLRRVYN

## CCC/C=C\C=C\CCCCCCCCCO [bombykol]
BmOr-1
  EC50: 8.2 µM

## CCCCCOC(C)=O [pentylacetate]
Or47a
  two-electrode voltage clamp in Xenopus oocytes, 100 μM: oocytes expressing various insect Or-Orco complex in response to their cognate ligands and cyclic nucleotide reagents

## Cc1ccccc1O [2-methylphenol]
AgOr2
  two-electrode voltage clamp in Xenopus oocytes, 100 μM: oocytes expressing various insect Or-Orco complex in response to their cognate ligands and cyclic nucleotide reagents
